From US4394390A, “Nasal dosage forms of propranol” (University of Kentucky Research Foundation, priority 1980, dated 1983)

How the values were obtained:
[1] = Bioavailability of propranolol from nasal solution vs oral and intravenous administration in rats (blood levels, AUC); conditions: rat, FIG. 1
[2] = cited from earlier work
[3] = rat, in vivo
[4] = in vivo; conditions: rat
[5] = Crossover study of propranolol plasma levels after nasal, intravenous and oral administration in dogs
[6] = in vivo; conditions: dog

For `CC(C)NCC(O)COc1cccc2ccccc12` (centres unmarked) [propranolol, 1-(isopropylamino)-3-(1-naphthyloxy)-2-propanol], the “blood level after nasal administration compared with intravenous administration” value ([1]; nasal 1 mg vs I.V. 1 mg) was “identical to the blood level after intravenous administration”, the “absorption from the nasal mucosa” value ([1]; nasal) was “very rapidly absorbed from the nasal mucosa” and the “blood level after oral administration” value ([1]; oral, same dosage level (1 mg), compared with nasal and I.V.) was “considerably lower blood levels”. For the same compound, the “variation of plasma levels among subjects” value ([2]; human, intravenous, 10 mg, same five subjects) was “varied only two fold”, the “variation of peak plasma levels among subjects” value ([2]; human, oral, 80 mg, five subjects) was “varied seven fold” and the “bioavailability (ratio of AUC of 80 mg oral dose and 10 mg I.V. dose)” value ([2]; human, oral, lowest in some subjects) was 16%. For the same compound, the “absorption from oral dosage forms” value ([2]; oral dosage forms) was “inefficiently and variably absorbed from oral dosage forms”, the “dependence of area under the blood level curve on dose” value [3] was “directly proportional to the dose” and the “oral bioavailability, AUC ratio (oral/nasal)×100” value ([3]; 240 min) was “about 15%”. It also gave a Tmax [4] of at most 5 min, a bioavailability at 4 h ([4]; Ratio (AUC nasal vs I.V.)) of 99.6% and a bioavailability at 4 h ([4]; po, Ratio (AUC oral vs I.V.)) of 17.9%. For the same compound, the bioavailability at 4 h ([4]; po, oral bioavailability, AUC ratio (oral/I.V.)×100) was about 15%, the “plasma levels after intravenous and nasal administration compared” value ([5]; dog, 20 mg, nasal vs I.V., FIG. 2) was “virtually identical” and the “plasma levels after oral administration” value ([5]; dog, 20 mg, oral compared with I.V. and nasal, FIG. 2) was “considerably lower plasma levels”. The “absorption from the nasal mucosa into systemic blood” value ([5]; nasal, conclusion from dog study and rat study) was “rapidly absorbed from the nasal mucosa into systemic blood without the first pass metabolism”, the bioavailability at 8 h ([6]; AUC(Nasal)/AUC(I.V.)) was 96.7% and the bioavailability ([6]; bioavailability from the nasal route relative to the intravenous route) was 99.1%. The bioavailability at 8 h ([6]; po, AUC(P.O.)/AUC(I.V.)) was 8.9% and the bioavailability ([6]; po, bioavailability from the oral route relative to the intravenous route) was 7.4%.
